Measured values published in US5210193A, “Piperazine derivatives” (American Cyanamid Company, priority 1990, dated 1993).
In brackets after ≈: the same amount, converted by molar mass. Where two headings read alike, the source gives them in different places.

Tests used:
Assay in all cases: in vitro antibacterial MIC, agar plate dilution
Type in all cases: cell-based
[1] = tested on: Enterobacter aerogenes VGH 84-36; conditions: Klebsiella aerogenes, VGH8436, 18 hours, 35° C., read-out: MIC
Summary of the method: (§1)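 Minimal inhibitory concentrations came from agar plate dilution in Mueller-Hinton medium. Each organism was delivered at roughly 10^4 CFU by Steers replicator. Plates were read for visible growth after 18 hours at 35° C, values in mcg/ml.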

[2] = tested on: Enterobacter cloacae K 84-10; conditions: Enterobacter cloacae, K8410, 18 h, 35° C., read-out: MIC
Summary of the method: as §1

[3] = tested on: Enterobacter cloacae VGH 84-37; conditions: Enterobacter cloacae, VGH8437, 18 h, 35° C., read-out: MIC
Summary of the method: as §1

[4] = tested on: Escherichia coli ATCC 25922; conditions: 35° C.
Summary of the method: as §1

[5] = tested on: Escherichia coli CMC 84-11; conditions: 35° C.
Summary of the method: as §1

[6] = tested on: Escherichia coli CMC 84-16; conditions: Escherichia coli, CMC8416, 18 h, 35° C., read-out: MIC
Summary of the method: as §1

[7] = tested on: Escherichia coli NAR 311; conditions: NAR311, 18 hours, 35° C., read-out: MIC
Summary of the method: as §1

[8] = tested on: Escherichia coli PRNT 311; conditions: PRNT311, 18 hours, 35° C., read-out: MIC
Summary of the method: as §1

[9] = tested on: Klebsiella oxytoca MOR 84-28; conditions: MOR8428, 18 hours, 35° C.
Summary of the method: as §1

[10] = tested on: Klebsiella pneumoniae AD; conditions: Klebsiella pneumoniae, 18 h, 35° C., read-out: MIC
Summary of the method: as §1

[11] = tested on: Klebsiella pneumoniae MOR 84-4; conditions: Klebsiella pneumoniae, MOR844, 18 h, 35° C., read-out: MIC
Summary of the method: as §1

[12] = tested on: Morganella morganii CMC 84-37; conditions: 35° C.
Summary of the method: as §1

[13] = tested on: Morganella morganii VGH 84-11; conditions: VGH8411, 18 hours, 35° C., read-out: MIC
Summary of the method: as §1

[14] = tested on: Proteus rettgeri CMC 84-41; conditions: Providencia rettgeri, CMC8441, 18 h, 35° C., read-out: MIC
Summary of the method: as §1

[15] = tested on: Pseudomonas aeruginosa LL-1244; conditions: 35° C.
Summary of the method: as §1

[16] = tested on: Pseudomonas aeruginosa VGH 84-4; conditions: 35° C.
Summary of the method: as §1

[17] = tested on: Serratia marcescens F 0-35; conditions: Serratia marcescens, F035, 18 h, 35° C., read-out: MIC
Summary of the method: as §1

[18] = tested on: Serratia marcescens K 84-18; conditions: 35° C.
Summary of the method: as §1

[19] = tested on: Staphylococcus Spp saprophiticus VGH 84-50; conditions: 18 hours, 35° C., read-out: MIC
Summary of the method: as §1

[20] = tested on: Staphylococcus aureus ATTC 29213; conditions: 35° C.
Summary of the method: as §1

[21] = tested on: Staphylococcus aureus CMC 83-127; conditions: Staphylococcus aureus, CMC83127, 18 h, 35° C., read-out: MIC
Summary of the method: as §1

[22] = tested on: Staphylococcus aureus CMC 83-128; conditions: CMC83128, 18 hours, 35° C., read-out: MIC
Summary of the method: as §1

[23] = tested on: Staphylococcus aureus Smith; conditions: 35° C.
Summary of the method: as §1

[24] = tested on: Staphylococcus aureus VGH 84-45; conditions: 35° C.
Summary of the method: as §1

[25] = tested on: Staphylococcus aureus VGH 84-46; conditions: Staphylococcus aureus, VGH8446, 18 h, 35° C., read-out: MIC
Summary of the method: as §1

[26] = tested on: Staphylococcus epidermidis CMC 83-135; conditions: CMC83135, 18 hours, 35° C., read-out: MIC
Summary of the method: as §1

[27] = tested on: Staphylococcus epidermidis IO 83-58; conditions: IO8358, 18 hours, 35° C., read-out: MIC
Summary of the method: as §1

[28] = tested on: Staphylococcus epidermidis VGH 84-40; conditions: VGH8440, 18 hours, 35° C., read-out: MIC
Summary of the method: as §1

[29] = tested on: Streptococcus faecalis ATTC 29212; conditions: Enterococcus faecalis, ATTC29212, 18 hours, 35° C., read-out: MIC
Summary of the method: as §1

[30] = tested on: Streptococcus faecalis VGH 84-65; conditions: 35° C.
Summary of the method: as §1

[31] = Escherichia coli, ATCC25922, 18 h, read-out: MIC
[32] = Escherichia coli, CMC8411, 18 h, read-out: MIC
[33] = Morganella morganii, CMC8437, 18 h, read-out: MIC
[34] = Pseudomonas aeruginosa, LL1244, 18 h, read-out: MIC
[35] = Pseudomonas aeruginosa, VGH844, 18 h, read-out: MIC
[36] = Serratia marcescens, K8418, 18 h, read-out: MIC
[37] = Staphylococcus aureus, ATTC29213, 18 h, read-out: MIC
[38] = Staphylococcus aureus, 18 h, read-out: MIC
[39] = Staphylococcus aureus, VGH8445, 18 h, read-out: MIC
[40] = Enterococcus faecalis, VGH8465, 18 h, read-out: MIC

SMILES | MIC [1] [µg/mL] | MIC [2] [µg/mL] | MIC [3] [µg/mL] | MIC [6] [µg/mL] | MIC [7] [µg/mL] | MIC [8] [µg/mL] | MIC [9] [µg/mL] | MIC [10] [µg/mL] | MIC [11] [µg/mL] | MIC [13] [µg/mL] | MIC [14] [µg/mL] | MIC [17] [µg/mL] | MIC [19] [µg/mL] | MIC [21] [µg/mL] | MIC [22] [µg/mL] | MIC [25] [µg/mL] | MIC [26] [µg/mL] | MIC [27] [µg/mL] | MIC [28] [µg/mL] | MIC [29] [µg/mL] | other results
CCCCCCCCCCCCOCC1CN(c2cc3c(cc2F)c(=O)c(C(=O)O)cn3CC)CCN1 (stereo not drawn) [Example 74, 7-[3-[(Dodecyloxy)methyl]-1-piperazinyl]-1-ethyl-6-fluoro-1,4-dihydro-4-oxo-3-quinolinecarboxylic acid] | > 256 | > 256 | > 256 | > 256 | > 256 | > 256 | > 256 | > 256 | > 256 | > 256 | > 256 | > 256 | 64 (≈ 124 µM) | 32 (≈ 61.8 µM) | 128 (≈ 247 µM) | 128 (≈ 247 µM) | 128 (≈ 247 µM) | 128 (≈ 247 µM) | 64 (≈ 124 µM) | 128 (≈ 247 µM) | MIC [4, 31]: > 256 µg/mL; MIC [5, 32]: > 256 µg/mL; MIC [12, 33]: > 256 µg/mL; MIC [15, 34]: > 256 µg/mL; MIC [16, 35]: > 256 µg/mL; MIC [18, 36]: > 256 µg/mL; MIC [20, 37]: 128 µg/mL (≈ 247 µM); MIC [23, 38]: 128 µg/mL (≈ 247 µM); MIC [24, 39]: 128 µg/mL (≈ 247 µM); MIC [30, 40]: 128 µg/mL (≈ 247 µM)
CCCCCCOCC1CN(c2cc3c(cc2F)c(=O)c(C(=O)O)cn3CC)CCN1 (stereo not drawn) [Example 77, 1-Ethyl-6-fluoro-7-[3-[(hexyloxy)methyl]-1-piperazinyl]-1,4-dihydro-4-oxo-3-quinolinecarboxylic acid] | 4 (≈ 9.23 µM) | 4 (≈ 9.23 µM) | 4 (≈ 9.23 µM) | 2 (≈ 4.61 µM) | 32 (≈ 73.8 µM) | 2 (≈ 4.61 µM) | 8 (≈ 18.5 µM) | 4 (≈ 9.23 µM) | 4 (≈ 9.23 µM) | 4 (≈ 9.23 µM) | 8 (≈ 18.5 µM) | 8 (≈ 18.5 µM) | 2 (≈ 4.61 µM) | 0.25 (≈ 0.577 µM) | 0.5 (≈ 1.15 µM) | 0.5 (≈ 1.15 µM) | 1 (≈ 2.31 µM) | 1 (≈ 2.31 µM) | 0.25 (≈ 0.577 µM) | 8 (≈ 18.5 µM) | MIC [4, 31]: 2 µg/mL (≈ 4.61 µM); MIC [5, 32]: 2 µg/mL (≈ 4.61 µM); MIC [12, 33]: 4 µg/mL (≈ 9.23 µM); MIC [15, 34]: > 256 µg/mL; MIC [16, 35]: 128 µg/mL (≈ 295 µM); MIC [18, 36]: 16 µg/mL (≈ 36.9 µM); MIC [20, 37]: 1 µg/mL (≈ 2.31 µM); MIC [23, 38]: 2 µg/mL (≈ 4.61 µM); MIC [24, 39]: 0.5 µg/mL (≈ 1.15 µM); MIC [30, 40]: 8 µg/mL (≈ 18.5 µM)
O=C(O)c1cn(C2CC2)c2cc(N3CCNC(c4ccsc4)C3)c(F)cc2c1=O (stereo not drawn) [Example 60] | < 0.12 | < 0.12 | < 0.12 | < 0.12 | 0.25 (≈ 0.605 µM) | < 0.12 | < 0.12 | < 0.12 | < 0.12 | < 0.12 | < 0.12 | < 0.12 | < 0.12 | < 0.12 | < 0.12 | < 0.12 | < 0.12 | < 0.12 | < 0.12 | < 0.12 | MIC ([4]; 18 hours): < 0.12 µg/mL; MIC ([5]; 18 hours): < 0.12 µg/mL; MIC ([12]; 18 hours): < 0.12 µg/mL; MIC ([15]; 18 hours): 4 µg/mL (≈ 9.67 µM); MIC ([16]; 18 hours): 0.5 µg/mL (≈ 1.21 µM); MIC ([18]; 18 hours): < 0.12 µg/mL; MIC ([20]; 18 hours): < 0.12 µg/mL; MIC ([23]; 18 hours): < 0.12 µg/mL; MIC ([24]; 18 hours): < 0.12 µg/mL; MIC ([30]; 18 hours): < 0.12 µg/mL
CCn1cc(C(=O)O)c(=O)c2cc(F)c(N3CCN(C)CC3)c(F)c21 [Example 61, 1-Ethyl-6,8-difluoro=1,4-dihydro-7-(4-methyl-1-piperazinyl)-4-oxo-3-quinolinecarboxylic acid] | 0.03 (≈ 0.0854 µM) | 0.03 (≈ 0.0854 µM) | 0.03 (≈ 0.0854 µM) | < 0.015 | 0.5 (≈ 1.42 µM) | 0.03 (≈ 0.0854 µM) | 0.06 (≈ 0.171 µM) | 0.06 (≈ 0.171 µM) | 0.06 (≈ 0.171 µM) | 0.06 (≈ 0.171 µM) | 0.12 (≈ 0.342 µM) | 0.12 (≈ 0.342 µM) | 2 (≈ 5.69 µM) | 0.12 (≈ 0.342 µM) | 0.5 (≈ 1.42 µM) | 0.25 (≈ 0.712 µM) | 0.25 (≈ 0.712 µM) | 0.25 (≈ 0.712 µM) | 0.25 (≈ 0.712 µM) | 2 (≈ 5.69 µM) | MIC [4, 31]: < 0.015 µg/mL; MIC [5, 32]: 0.03 µg/mL (≈ 0.0854 µM); MIC [12, 33]: 0.06 µg/mL (≈ 0.171 µM); MIC [15, 34]: 4 µg/mL (≈ 11.4 µM); MIC [16, 35]: 0.5 µg/mL (≈ 1.42 µM); MIC [18, 36]: 0.06 µg/mL (≈ 0.171 µM); MIC [20, 37]: 0.5 µg/mL (≈ 1.42 µM); MIC [23, 38]: 0.25 µg/mL (≈ 0.712 µM); MIC [24, 39]: 0.12 µg/mL (≈ 0.342 µM); MIC [30, 40]: 2 µg/mL (≈ 5.69 µM)
